Test results reported in patent US20050191348A1 (priority 2004, published 2005).
Marks after values point to notes of the source that are not given here.

Key:
[1] = tested on: p-PKC (pan), PKCα and PKCε; test: PKC translocation to membrane fraction of PC12 cells; type: cell-based, rat; settings: PC12, 100 nM, 2 h
Experimental: (v) PKC translocation. Cells were cultured to confluence and treated for 2 h with either no drug (control), phorbol 12-myristate-13-acetate (PMA) (positive control) or rasagiline. After washing, the cells were harvested, collected by centrifugation (5 min, 1500 rpm), and homogenized by sonication (12 s, 22μ) in homogenization buffer (20 mM Tris-HCl, pH 7.4, 0.32 M sucrose, 2 mM EDTA, 50 mM β-mercaptoethanol) containing a protease inhibitor cocktail (Sigma Aldrich, Sweden). Cytosolic and particulate fractions were separated by ultracentrifugation (30 min, 100,000 g, 4° C.). For the particulate fraction, proteins were extracted by a 45 min incubation on ice in homogenization buffer containing 0.5% Triton X-100. Samples were then sonicated for 1 min and equivalent amounts of protein (15 μg) separated by PAGE followed by blotting onto nitrocellulose paper. Western blotting was performed essentially as described above using antibodies against p-PKC (pan), PKCα and PKCε.
PKC translocation to the membrane fraction upon activation and membrane localization is often used as a marker for PKC activation.

[2] = tested on: caspase-3, BAD; test: Serum free-induced caspase-3 cleavage and BAD levels (rasagiline, data not shown); type: cell-based
[3] = tested on: MAPK; test: MAPK activation (phospho-p44/42 MAPK immunoblot) in PC12 cells; type: cell-based, rat
Experimental: (viii) Extracellular signal-regulated kinase (ERK) activity. The kinase activity of the ERKs was measured using the MAPK assay kit (Cell Signaling Technology) according to the manufacturer's protocol. In brief, for kinase activity assays, PC12 cells were grown in 6-well plates (5×10^5 cells/well). Eighteen to twenty-four hours before experiments, the medium was replaced with DMEM with 0.5% FCS and treated as described in the figures. Experimental treatments were performed in 1 ml medium containing 0.5% FCS, with the vehicle or test drugs and/or inhibitors at 37° C., as described in the figures. After treatment, reactions were stopped by placing cells on ice and aspirating the medium. Cells were harvested in 50 mM Tris-HCl, pH 8.0, 150 mM NaCl, 5 mM EDTA, 1 mM DTT, 1% Triton X-100, and protease- and phosphatase-inhibitor cocktails. Protein concentration was determined by the Bradford method. As described previously (Yogev-Falach et al., 2002), each cell lysate, containing 30 μg protein, was separated on 4-12% SDS-polyacrylamide electrophoresis gels, immunoblotted, and identified using phospho-p44/42 MAPK (Thr202/Tyr204) antibody or p44/42 MAPK antibody. Data are representative of three to six independent experiments.
To study the effect of rasagiline on MAPK activation, PC12 cells were treated for 0.5 h with increasing concentrations of rasagiline (0.1, 1 and 10 μM), and quantification of the phospho-MAPK blots were normalized using the total MAPK blots, or PC12 cells were preincubated for 15 min with vehicle alone, or with PD98059 (30 μM) or GF109203X (2.5 μM) and then incubated without or with rasagiline (10 μM) for 0.5 h. Aliquots of cell lysates were then subjected to immunoblot analysis and probed with anti-phospho-MAPK (top blots) and anti-MAPK (bottom blots).
For the effect of propargylamine on MAPK activation, PC12 cells were treated for 0.5 h with increasing concentrations of propargylamine (0.1, 1 and 10 μM). Aliquots of cell lysates were then subjected to immunoblot analysis and probed with anti-phospho-MAPK and anti-MAP kinase. Quantification of the phospho-MAPK were normalized using the total MAPK blots.

[4] = tested on: PKC; test: PKC phosphorylation in PC12 cell lysates, Western blot with p-PKC (pan) antibody; type: cell-based, rat; settings: PC12, pre-treatment 2.5 μM
Experimental: (iv) Immunoblot Analyses. For Western blot analyses, attached cells were washed once in cold PBS and then lysed in 1× nonreducing Laemmli buffer followed by boiling for 3-5 min. Protein content was determined using the Bradford method. Equal amounts of protein were separated by SDS-polyacrylamide gel electrophoresis and blotted onto polyvinylidene difluoride (PVDF) membranes (Millipore). Membranes were treated with blocking buffer (5% dry milk in PBS or 5% dry milk, 0.05% Tween 20 (Sigma) in TBS). Primary antibodies were diluted in PBS or in TBS containing 5% BSA, 0.05% Tween 20 and incubated with membranes for 20 h at 4° C., followed by incubation (1 h at room temperature) in dilutions of horseradish peroxidase (HRP)-conjugated secondary antibodies in the same buffers. Following antibody incubations, membranes were washed in 0.5% Tween 20 in PBS or TBS. Detection was achieved using ECL™ Western Blotting Detection Reagent (Amersham, Pharmacia, Little Chalfort Buckinghamshire, UK). Quantification of results was accomplished by measuring the optical density of the labeled bands from the autoradiograms by scanning laser densitometry using the computerized imaging program Bio-ID (Imager, Bio1D software; Vilber Lourmat, Marne La Vallee, France). The values were normalized to β-actin intensity levels.
Since activation of PKC has been shown previously to modulate cell viability, resulting in protection of neuronal cells, it was of interest to investigate the effects of rasagiline on PKC activation. In one experiment, PC12 cells were untreated or treated with various concentrations of rasagiline (0.1, 1 and 10 μM) for 1 hour. […] Phosphorylation of PKC was analyzed in cell lysates by Western blotting and detected with p-PKC (pan) antibody.
The effect of propargylamine on PKC phosphorylation/activation was investigated as described in Example 2 above.

[5] = tested on: sAPPα; test: sAPPα release into medium of SH-SY5Y neuroblastoma cells; type: cell-based, human; settings: 3 h; for sAPPα secretion (fold/basal): 1 μM, SH-SY5Y conditioned media, mean ± SE of three experiments
Experimental: For the experiments, cells were seeded (2×10^6) onto 100-mm plates (for SH-SY5Y cells) or T75 flasks (for PC12 cells) in culture medium supplemented with full serum for 48 h. The cells were replaced with fresh medium containing 0.5% FCS for an additional 24 h (subconfluent culture), and then the experiments were performed in fresh medium containing 0.5% FCS for the indicated time periods at 37° C. After incubation with various drugs, the conditioned media were collected, centrifuged at 3500 g (10 min, 4° C.) to remove cell debris, and the cleared supernatants were concentrated 10-fold by lyophilization.
(vii) Determination of sAPP. Protein concentrations of cell lysates were assayed using Bradford reagent (Sigma Chemical). Equal amounts of volumes of conditioned medium, standardized to lysate protein, were subjected to […], using either the MAbs 22C11 or 6E10 in 50 mM Tris-HCl, pH 7.4, 150 mM NaCl, containing 0.05% Tween 20 and 1% BSA. Immunoreactivity was detected using anti-mouse IgG-conjugated with HRP and an enhanced chemiluminescence method (Amersham, Pharmacia Biotech, UK). Blots were developed for different times to span a linear range of response, and the relative intensity of immunoreactive bands on the exposed films was quantified by computer-assisted densitometry program (Quantity One, Bio-Rad, Hercules, Calif., USA).
It was of interest to determine whether rasagiline and other propargylamine-containing drugs also regulate APP processing. For this purpose, SH-SY5Y neuroblastoma cells were incubated for 3 h without or with 1 μM of various drugs (TV3326 and its S-isomer TV3279, rasagiline and its S-isomer TVP1022, selegiline, aminoindan), and sAPPα was measured in the media as described in Materials and Methods.
We further characterized, in detail, the effect of rasagiline on APP processing and the signaling pathways that are involved. Thus, SH-SY5Y neuroblastoma cells were incubated for 3 h without or with increasing concentrations of rasagiline (0.1, 1 and 10 μM), and sAPPα was measured in the media as described in Materials and Methods.
For the sAPPα release, SH-SY5Y neuroblastoma cells or PC12 cells were incubated for 3 h without or with increasing concentrations of propargylamine (0.1, 1 and 10 μM), and sAPPα was measured in the media as described in Materials and Methods.

[6] = tested on: Bcl-2 family and PKC isoform mRNA; test: Gene expression by quantitative real-time RT-PCR in serum-free PC12 cells; type: cell-based, rat
Experimental: (vi) Total RNA extraction. PC12 cells were cultured in DMEM containing 5% FCS and 10% horse serum until confluence. At the day of the experiment, the medium was replaced with fresh medium without serum and rasagiline or propargylamine at various concentrations were administered for 24 h. At the end of incubation, the medium was removed and isolation of total RNA was performed, using Tri Reagent™ Isolation reagent. Total RNA was treated with DNase-RNase free (Roche Diagnostics, Mannheim, Germany) for 30 min at 37° C. and subsequently extracted by a round of phenol:chlorophorm:isoamylalcohol (25:24:1), followed by one of chloroform. After precipitation with NaOAc (0.3 M) and ethyl alcohol, the RNA pellet was washed with 80% ethyl alcohol (12,000×g) for 10 min and resuspended in 50-100 μl of diethylpyrocarbonate (DEPC)-treated water and incubated for 5-10 min at 56° C. to facilitate resuspension.
(vi) Reverse transcription (RT) and quantitative real-time RT-PCR. In order to confirm the results obtained with the customized cDNA expression micro-array, 2 μg of total RNA were denatured and reverse transcribed using random hexanucleotides (0.5 μg/μl). Secondary structures of the template and primer (total volume of 16 μl) were opened by incubation for 5 min at 70° C. and immediately cooled on ice. Reaction mix (9 μl) containing reaction buffer, dNTP (0.5 mm each), RNAasin™ RNAase inhibitor (Promega) (25U) and M-MLV reverse transcriptase (200U) was added and samples were incubated at 39° C. for 1 h. For every RNA preparation a negative control was run in parallel consisting of a direct amplification of the RNA sample, omitting the RT step. The samples were transferred to 92° C. for 10 min, in order to deactivate the enzyme, and then cooled to 4° C.
Quantitative real-time PCR, using LightCycler and FastStart DNA Master SYBR Green I ready-to use PCR mix, was performed according to the manufacture's protocol (Roche Diagnostics, Mannheim, Germany). cDNA (40 ng) was amplified in 20 μl total volume. The sequences of the primers and the size of the products are described in Table 1. The results are analyzed on the provided program of the LightCycler. The relative expression level of a given mRNA was assessed by normalizing to the housekeeping gene 18S-rRNA and compared with control values.
In this experiment, we examined whether Bcl-2 family proteins mediate the pro-survival effect of rasagiline, using serum-starved rat pheochromocytoma PC12 cell line as a model of neuronal apoptosis. PC12 cells were maintained in full-serum (control), or in serum-free (SF) media in the absence or presence of various concentrations of rasagiline (0.001, 0.1, 1 and 10 μM) for 3 h or 24 h, and gene expression was measured by quantitative real-time RT-PC. The real-time RT-PCR consists of RNA samples isolated from said PC-12 cells. Each gene expression was normalized to the housekeeping gene, 18S-rRNA, since this transcript was reported to be less susceptible to the influence by external factors.
The effect of propargylamine on Bad and Bax mRNA levels was examined as described in Example 5 above.

[7] = tested on: PC12 cells; settings: PC12, 10 μM, 24 h

CCCCCCCCCCCCCC(=O)O[C@@H]1[C@@H](C)[C@@]2(O)[C@@H](C=C(CO)C[C@]3(O)C(=O)C(C)=C[C@@H]23)[C@@H]2C(C)(C)[C@]12OC(C)=O [PMA, phorbol 12-myristate-13-acetate]
translocation of PKCα [1]: 157% | translocation of PKCε [1]: 212% | translocation of p-PKC (pan) [1]: 214%

CN(C)CCCn1cc(C2=C(c3c[nH]c4ccccc34)C(=O)NC2=O)c2ccccc21 [GF109203X]
effect on rasagiline-induced decrease of BAD [2]: blocked | effect on rasagiline suppression of caspase-3 cleavage ([2]; data not shown): reversed | effect on rasagiline-induced MAPK activation ([3]; PC12, preincubation 2.5 μM, rasagiline 10 μM 0.5 h): abolished the effect of rasagiline on MAPK activation | effect on propargylamine-induced PKC phosphorylation ([4]; propargylamine 1 μM 1 h): blocked the effect of propargylamine on PKC phosphorylation | effect on rasagiline-induced PKC phosphorylation ([4]; rasagiline 1 μM 1 h): significantly reduced rasagiline-induced PKC phosphorylation

C#CCN[C@@H]1CCc2ccc(OC(=O)N(C)CC)cc21 [TV3326, (N-propargyl-(3R)aminoindan-5yl)-ethyl methyl carbamate]
sAPPα secretion (fold/basal) [5]: 2.86 ± 0.35^b fold/basal

C#CCN[C@@H]1CCc2ccccc21 [Rasagiline, N-propargyl-(1R)-aminoindan]
Bad mRNA reduction ([6]; 1 μM, 3 h): 1.35 fold vs. serum free treatment | Bcl-xL mRNA expression increase ([6]; 10 μM, 24 h, compared to serum-free culture): about 2 fold | Bad mRNA reduction ([6]; 0.01 and 0.1 μM, 24 h): ~2.5 fold vs. serum free culture | Bcl-W mRNA expression ([6]; 0.1, 1 and 10 μM, 24 h): 135 % of serum-free culture | lowest dose giving MAPK activation ([3]; PC12, 0.5 h): 0.1 µM | sAPPα secretion (fold/basal) [5]: 2.97 ± 0.15^b fold/basal | increase in sAPPα secretion over the basal levels ([5]; SH-SY5Y, 10 μM (maximal effect)): ~3.0 fold

COc1cccc(-c2cc(=O)c3ccccc3o2)c1N [PD98059]
effect on rasagiline-induced MAPK phosphorylation ([3]; PC12, pretreatment 30 μM, rasagiline 10 μM 0.5 h): blocked the rasagiline-induced increase of MAPK phosphorylation

NC1CCc2ccccc21 (centres unmarked) [Aminoindan, aminoindan]
MAPK phosphorylation ([3]; PC12, 0.1, 1 and 10 μM, 0.5 h): did not show such effects | sAPPα secretion (fold/basal) [5]: 1.23 ± 0.32 fold/basal | sAPPα released into the medium ([5]; SH-SY5Y, 0.1, 1 and 10 μM, versus untreated cells): did not show such effects

C#CCN(C)[C@H](C)Cc1ccccc1 [Selegiline, R-(−)-N-methyl-N-(prop-2-ynyl)-2-aminophenylpropane]
sAPPα secretion (fold/basal) [5]: 2.03 ± 0.21^c fold/basal

C#CCN[C@H]1CCc2ccc(OC(=O)N(C)CC)cc21 [TV3279]
sAPPα secretion (fold/basal) [5]: 2.76 ± 0.36^b fold/basal

Aβ1-42: amyloidogenic Aβ peptide, used as toxic insult
cell viability [7]: 66 % of control
